Results from patent US7550469B2, “Heterocyclic amide derivatives and their use as dopamine D3 receptor ligands” (Aventis Pharmaceuticals Inc., priority 2001, dated 2009).
Read-outs that look alike come from different tables or passages of the source. One block for each compound: values may come before it.

Target: T1, cloned human dopamine D3 receptors (Homo sapiens, UniProt P35462)
T1 construct: expressed in transfected cells; membrane homogenate
Assay: [N-Methyl-3H]Spiroperidol binding to cloned human dopamine D3 receptors (Protocol 1)
From the text: [N-Methyl-^3H]Spiroperidol Binding to Cloned Human Dopamine D3 Receptors
This assay measures the in vitro activity of compounds on cloned human dopamine (D3) receptors and predicts the direct dopamine-blocking properties of putative neuropsychiatric agents at human dopamine D3 receptors.
The D3 gene was isolated from a human striatal cDNA library (Stratagene). The gene was sequenced and sub-cloned into the expression vector RC/RSV (Invitrogen). CHO (Chinese Hamster Ovary) cells were stably transfected with 10 μg of the D3/RSV plasmid using the DOTAP method from Boehringer Mannheim and 72 clones that were G418 resistant were isolated. Using mRNA and binding displacement data a single high expressing clone was identified. This clone was then grown in large batches for the purpose of developing a 96 well format assay.
• 1. One plate (10 cm) with approximately 2-3 million D3 cells per plate is incubated with 1 ml of Trypsin-EDTA at room temperature for ˜2 min or until cells have lifted off plates. Four ml of Ham's F12+10% Fetal Bovine Serum+1% Penicillin/Streptomycin+G418 (400 μg/ml) medium are added to resuspend cells and 1 ml of this is added to each large plate (15 cm) containing 19 ml of the-same medium as mentioned above. • 2. The 5 large plates are incubated at 37° C.+5% CO2 for ˜3 days or until the cells are confluent. • 3. After these plates are confluent, they are split into 10 large plates. Medium is aspirated off, 2 ml of Trypsin-EDTA are added to each plate and plates are incubated at RT for 2 min or until cells have lifted off the plate. Eight ml of the F12 medium (same medium as #1 above) are added to each plate (10 ml total) to resuspend the cells and 5 ml are transferred to the 2 new plates containing 15 ml of the F12 media. • 4. The 10 large plates are incubated at 37° C.+5% CO2 for ˜2 days or until the cells are confluent. • 5. The 10 large plates are split into 60 large plates (using Trypsin-EDTA as #3 except 4 ml of F12 medium are added to resuspend cells and 1 ml is aliquoted to 6 new plates containing 19 ml of F12 medium each). • 6. Plates are incubated at […]+5% CO2 for ˜3 days or until cell are confluent. • 7. The 60 large plates are then split into 60 roller bottles (100-150 million cells/bottle). Medium is aspirated off, 2 ml of Trypsin-EDTA are added to each plate and incubated at RT for ˜2 minutes or until cells have lifted off plates. Eight ml of F12 medium are added to each plate to resuspend cells and the entire 10 ml are added to 1 roller bottle containing 90 ml of the F12 medium. • 8. The 60 roller bottles are immediately placed on their sides and transferred to the roller bottle incubator. They are incubated at 37° C.+5% CO2 for ˜3-5 days. Cells are spun at 30-40% motor speed in the Forma incubator. • 9. Medium is poured off and cells are washed 2× in PBS. • 10. Cells are then scraped off in 20 ml of PBS and the bottles are rinsed again with 5 ml of PBS to remove any remaining cells. Cells are stored on ice before membrane preparation. • 11. The yield for 60 D3 roller bottles has varied from ˜260-500 mg. • Note: All tissue culture reagents are from Gibco-BRL. C. Membrane Preparation
The cells are harvested into 250 ml centrifuge tubes with 100 volumes of cold phosphate buffered saline (PBS) and spun down (1200×G for 10 min at 4° C.). The medium is removed and 100 ml PBS are added to each centrifuge tube, cells are resuspend and spun down again. The PBS is removed and the final pellet is homogenized in an appropriate volume of 10% DMSO with a polytron on ice at a medium setting.
1. 0.5M Tris Buffer, pH 7.7 • a) 44.4 g Tris HCl 26.5 g Tris Base q.s. to 1 Liter (0.5 M Tris buffer, pH 7.7 at 37° C.) • b) make a 1:10 dilution in distilled H2O (0.05 M. Tris buffer, pH 7.7) 2. Tris Buffer Containing Physiological Salts • a) Stock buffer • NaCl 7.014 g • KCl 0.372 g • CaCl2 0.222 g • MgCl2 0.204 g • q.s. To 100 ml with 0.5 M. Tris Buffer • b) Dilute 1:10 in distilled H2O […]

[1] = the 23rd table, read-out: D3 Ki
[2] = the 17th table, read-out: D3 Ki
[3] = the 24th table, read-out: D3 Ki
[4] = the 18th table, read-out: D3 Ki

T1 sequence (P35462 whole entry): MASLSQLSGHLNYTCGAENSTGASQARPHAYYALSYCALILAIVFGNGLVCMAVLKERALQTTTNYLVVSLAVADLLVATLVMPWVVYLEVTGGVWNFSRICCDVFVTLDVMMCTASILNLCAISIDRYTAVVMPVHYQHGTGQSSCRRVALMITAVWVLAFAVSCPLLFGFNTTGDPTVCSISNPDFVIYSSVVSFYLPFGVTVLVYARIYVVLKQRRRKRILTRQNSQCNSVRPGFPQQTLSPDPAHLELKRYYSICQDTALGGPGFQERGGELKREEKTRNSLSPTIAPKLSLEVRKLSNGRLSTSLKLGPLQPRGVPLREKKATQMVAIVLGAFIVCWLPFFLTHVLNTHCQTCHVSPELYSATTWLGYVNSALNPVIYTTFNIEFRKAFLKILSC

SMILES: CC1(C)C(CNC(=O)C2CC2c2ccccc2)C1CN1CCN(c2csc3cc(C(F)(F)F)ccc23)CC1 (mixture of isomers) [compound 826283]
Ki (read-out: D3K1): 6.8 nM

SMILES: CC1CCCCN1CCCNC[C@@H]1C[C@H]1CN1CCN(c2csc3cc(C(F)(F)F)ccc23)CC1 (mixture of isomers) [compound 832277]
Ki [1]: 29.4 nM

SMILES: c1cc2onc(C3CCN(CC4CC4CN4CCC(c5noc6ccsc56)CC4)CC3)c2s1 (racemic) [831205DA]
Ki [1]: 6.38 nM

SMILES: c1ccc(OCCNCC2CC2CN2CCC(c3noc4ccsc34)CC2)cc1 (racemic) [832296FH]
Ki [1]: 126 nM

SMILES: OC1CCC(NCC2CC2CN2CCN(c3csc4cc(C(F)(F)F)ccc34)CC2)CC1 (racemic) [832390FH]
Ki [1]: 21.8 nM

SMILES: O=C(c1ccc(-c2ccccc2)cc1)N(Cc1ccccc1)CC1CC1CN1CCCN(c2csc3cc(F)ccc23)CC1 (racemic) [compound 830397]
Ki [2]: 55.4 nM

SMILES: O=C(c1cc2ccccc2s1)N(Cc1ccccc1)CC1CC1CN1CCCN(c2csc3cc(F)ccc23)CC1 (racemic) [compound 830398]
Ki [2]: 15.9 nM

SMILES: Cc1ccc(C(=O)NCC2CC2CN2CCCN(c3csc4cc(F)ccc34)CC2)cc1 (racemic) [compound 830403]
Ki [2]: 59.9 nM

SMILES: COc1ccc(C(=O)NCC2CC2CN2CCCN(c3csc4cc(F)ccc34)CC2)cc1 (racemic) [compound 830405]
Ki [2]: 1.65 nM

SMILES: O=C(NCC1CC1CN1CCCN(c2csc3cc(F)ccc23)CC1)c1cc2ccccc2s1 (racemic) [compound 830407]
Ki [2]: 10.4 nM

SMILES: COc1ccc(CNCC2CC2CN2CCN(c3csc4cc(C(F)(F)F)ccc34)CC2)cc1 (racemic) [compound 831909]
Ki [1]: 41.5 nM

SMILES: CC(C)c1ccc(CNCC2CC2CN2CCN(c3csc4cc(C(F)(F)F)ccc34)CC2)cc1 (racemic) [compound 832182]
Ki [1]: 98 nM

SMILES: FC(F)(F)c1ccc2c(N3CCN(CC4CC4CN4CCC(N5CCCC5)CC4)CC3)csc2c1 (racemic) [compound 832568]
Ki [1]: 46.2 nM

SMILES: O=C(NCCCCN1CCN(c2csc3cc(C(F)(F)F)ccc23)CC1)c1cccs1 [81708A]
Ki (read-out: D3K1): 4.5 nM

SMILES: O=C(NCc1sccc1CN1CCN(c2csc3cc(F)ccc23)CC1)c1cc2ccccc2s1 [818321G]
Ki [4]: 78.7 nM

SMILES: O=C(NCCC(CO)CN1CCN(c2csc3cc(C(F)(F)F)ccc23)CC1)c1ccc2ccccc2c1 (stereo not shown) [818619ES]
Ki (Table 2, read-out: D3K1): 324 nM

SMILES: Cc1c(C(=O)NCCC(CO)CN2CCN(c3csc4cc(C(F)(F)F)ccc34)CC2)cnn1-c1ccccc1 (stereo not shown) [818634ES]
Ki (Table 2, read-out: D3K1): 305 nM

SMILES: O=C(NCC(CO)CCN1CCN(c2csc3cc(C(F)(F)F)ccc23)CC1)c1ccsc1 (stereo not shown) [818927ES]
Ki (Table 2, read-out: D3K1): 164 nM

SMILES: O=C(NCC(CO)CCN1CCN(c2csc3cc(C(F)(F)F)ccc23)CC1)c1cn[nH]c1 (stereo not shown) [818928ES]
Ki (Table 2, read-out: D3K1): 158 nM

SMILES: O=C(NCC(CO)CCN1CCN(c2csc3cc(C(F)(F)F)ccc23)CC1)c1ccc2ccccc2c1 (stereo not shown) [818929ES]
Ki (Table 2, read-out: D3K1): 201 nM

SMILES: O=C(NCC(CO)CCN1CCN(c2csc3cc(C(F)(F)F)ccc23)CC1)c1cc2ccccc2[nH]1 (stereo not shown) [818930ES]
Ki (Table 2, read-out: D3K1): 79.3 nM

SMILES: O=C(NCC(CO)CCN1CCN(c2csc3cc(C(F)(F)F)ccc23)CC1)c1cc2ccccc2o1 (stereo not shown) [818932ES]
Ki (Table 2, read-out: D3K1): 207 nM

SMILES: O=C(NCC(CO)CCN1CCN(c2csc3cc(C(F)(F)F)ccc23)CC1)c1n[nH]c2ccccc12 (stereo not shown) [818935ES]
Ki (Table 2, read-out: D3K1): 244 nM

Results, then the compound that gave them:

Ki [1]: 19 nM
SMILES: CCC1CCCC1NC[C@@H]1C[C@H]1CN1CCN(c2csc3cc(C(F)(F)F)ccc23)CC1 (mixture of isomers) [compound 832278]

Ki [1]: 393 nM
SMILES: Clc1ccc(CN2CCN(CC3CC3CN3CCC(c4noc5ccsc45)CC3)CC2)cc1Cl (racemic) [832297GW]

Ki [2]: 21.8 nM
SMILES: O=C(c1ccc(F)cc1)N(Cc1ccccc1)CC1CC1CN1CCCN(c2csc3cc(F)ccc23)CC1 (racemic) [compound 830393]

Ki [2]: 10.7 nM
SMILES: COc1ccc(C(=O)N(Cc2ccccc2)CC2CC2CN2CCCN(c3csc4cc(F)ccc34)CC2)cc1 (racemic) [compound 830394]

Ki [2]: 27.6 nM
SMILES: CCCCc1ccc(C(=O)N(Cc2ccccc2)CC2CC2CN2CCCN(c3csc4cc(F)ccc34)CC2)cc1 (racemic) [compound 830395]

Ki [2]: 16.5 nM
SMILES: COc1cc(OC)cc(C(=O)N(Cc2ccccc2)CC2CC2CN2CCCN(c3csc4cc(F)ccc34)CC2)c1 (racemic) [compound 830396]

Ki [2]: 51.9 nM
SMILES: O=C(NCC1CC1CN1CCCN(c2csc3cc(F)ccc23)CC1)c1ccc(C(F)(F)F)cc1 (racemic) [compound 830404]

Ki [2]: 27 nM
SMILES: O=C(NCC1CC1CN1CCCN(c2csc3cc(F)ccc23)CC1)c1ccc(-c2ccccc2)cc1 (racemic) [compound 830406]

Ki [3]: 35.1 nM
SMILES: O=S(=O)(NC[C@@H]1C[C@H]1CN1CCN(c2csc3cc(C(F)(F)F)ccc23)CC1)c1ccc(F)cc1 (racemic) [compound 831495, 4-Fluoro-N-{2R-[4-(6-trifluoromethyl-benzo[b]thiophen-3-yl)-piperazin-1-ylmenthyl]-1R-cyclopropylmethyl}-benzenesulfonamide]

Ki [3]: 93.3 nM
SMILES: CC(C)(C)c1ccc(S(=O)(=O)NCC2CC2CN2CCN(c3csc4cc(C(F)(F)F)ccc34)CC2)cc1 (racemic) [compound 831591]

Ki [1]: 16 nM
SMILES: FC(F)(F)Oc1cccc(CNCC2CC2CN2CCN(c3csc4cc(C(F)(F)F)ccc34)CC2)c1 (racemic) [compound 832181]

Ki [1]: 39.6 nM
SMILES: O=C1NCCN1CCNCC1CC1CN1CCN(c2csc3cc(C(F)(F)F)ccc23)CC1 (racemic) [compound 832609]

Ki [1]: 97.5 nM
SMILES: Cc1nc(Cl)c(Cl)n1CCCNCC1CC1CN1CCN(c2csc3cc(C(F)(F)F)ccc23)CC1 (racemic) [compound 832644]

Ki [1]: 28.3 nM
SMILES: FC(F)(F)c1ccc2c(N3CCN(CC4CC4CNCCCN4CCCCC4)CC3)csc2c1 (racemic) [compound 832659]

Ki (Table 2, read-out: D3K1): 249 nM
SMILES: O=C(NCC(CO)CCN1CCN(c2csc3cc(C(F)(F)F)ccc23)CC1)c1cccc(C(=O)c2ccccc2)c1 (single isomer, unassigned) [818912ES]

Ki [4]: 11.2 nM
SMILES: O=C(NCc1sccc1CN1CCN(c2csc3cc(F)ccc23)CC1)c1ccc(-c2ccccn2)s1 [818320G]

Ki (Table 2, read-out: D3K1): 246 nM
SMILES: O=C(NCCC(CO)CN1CCN(c2csc3cc(C(F)(F)F)ccc23)CC1)c1ccc2[nH]ccc2c1 (stereo not shown) [818620ES]

Ki (Table 2, read-out: D3K1): 331 nM
SMILES: Cc1ccc(C(=O)NCC(CO)CCN2CCN(c3csc4cc(C(F)(F)F)ccc34)CC2)cc1 (stereo not shown) [818921ES]

Ki (Table 2, read-out: D3K1): 319 nM
SMILES: O=C(NCC(CO)CCN1CCN(c2csc3cc(C(F)(F)F)ccc23)CC1)c1c(F)cc(F)cc1F (stereo not shown) [818923ES]

Ki (Table 2, read-out: D3K1): 318 nM
SMILES: O=C(NCC(CO)CCN1CCN(c2csc3cc(C(F)(F)F)ccc23)CC1)c1ccco1 (stereo not shown) [818924ES]

Ki (Table 2, read-out: D3K1): 293 nM
SMILES: O=C(NCC(CO)CCN1CCN(c2csc3cc(C(F)(F)F)ccc23)CC1)c1ccoc1 (stereo not shown) [818925ES]

Ki (Table 2, read-out: D3K1): 206 nM
SMILES: O=C(NCC(CO)CCN1CCN(c2csc3cc(C(F)(F)F)ccc23)CC1)c1cccs1 (stereo not shown) [818926ES]

Ki (Table 2, read-out: D3K1): 97.2 nM
SMILES: O=C(NCC(CO)CCN1CCN(c2csc3cc(C(F)(F)F)ccc23)CC1)c1ccc2[nH]ccc2c1 (stereo not shown) [818931ES]

Ki (Table 2, read-out: D3K1): 218 nM
SMILES: CC1=C(C(=O)NCC(CO)CCN2CCN(c3csc4cc(C(F)(F)F)ccc34)CC2)Cc2ccccc21 (stereo not shown) [818934ES]

Ki (Table 2, read-out: D3K1): 141 nM
SMILES: O=C(NCC(CO)CCN1CCN(c2csc3cc(C(F)(F)F)ccc23)CC1)c1ccc2ncccc2c1 (stereo not shown) [818938ES]

Ki (Table 2, read-out: D3K1): 307 nM
SMILES: O=C(NCC(CO)CCN1CCN(c2csc3cc(C(F)(F)F)ccc23)CC1)c1ccncc1 (stereo not shown) [818940ES]
